Measured values taken from BindingDB's records for patent US20240173440 (Nuclidium, 2024).

Target: T1, Prolyl endopeptidase FAP (Homo sapiens, UniProt Q12884)
T1 sequence (Q12884 whole entry): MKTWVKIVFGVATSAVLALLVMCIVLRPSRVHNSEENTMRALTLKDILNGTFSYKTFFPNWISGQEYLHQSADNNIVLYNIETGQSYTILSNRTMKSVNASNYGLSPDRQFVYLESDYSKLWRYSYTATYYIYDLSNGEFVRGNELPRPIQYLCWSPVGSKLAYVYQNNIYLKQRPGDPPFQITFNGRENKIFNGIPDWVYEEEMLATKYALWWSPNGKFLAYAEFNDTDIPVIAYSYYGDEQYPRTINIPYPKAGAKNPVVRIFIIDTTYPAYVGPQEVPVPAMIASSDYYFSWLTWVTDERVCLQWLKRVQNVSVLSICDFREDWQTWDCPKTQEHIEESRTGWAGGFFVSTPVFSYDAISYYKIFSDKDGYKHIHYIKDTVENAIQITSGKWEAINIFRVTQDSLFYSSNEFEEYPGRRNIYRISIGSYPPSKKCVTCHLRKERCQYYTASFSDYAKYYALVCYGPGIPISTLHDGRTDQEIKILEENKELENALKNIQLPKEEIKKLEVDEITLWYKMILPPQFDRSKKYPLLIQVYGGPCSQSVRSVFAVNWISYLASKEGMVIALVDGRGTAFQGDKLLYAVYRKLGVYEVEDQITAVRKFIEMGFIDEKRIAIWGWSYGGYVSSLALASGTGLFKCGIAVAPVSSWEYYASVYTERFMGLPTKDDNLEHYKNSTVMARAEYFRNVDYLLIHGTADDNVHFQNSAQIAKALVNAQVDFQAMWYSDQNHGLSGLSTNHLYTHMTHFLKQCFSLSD
Assay: In Vitro hFAP Inhibition Assay
Description: FAPI-46 was used as positive control. Experiments were performed in triplicate, and the mean fluorescence values were fitted using Graph Pad Prism 9 (equation used: Y=Bottom+(Top−Bottom)/(1+((X^HillSlope)/(IC50^HillSlope)))).

| SMILES | IC50 |
| --- | --- |
| CN(C(=O)CCC(=O)NCCNC(=O)CCC(C(=O)O)[N+]12CC[N+]34CC[N+]5(CC1)CC(=O)[O][Cu]352[O]C(=O)C4)c1ccc2nccc(C(=O)NCC(=O)N3CC(F)(F)C[C@H]3C#N)c2c1 (some centres not stated) [US20240173440, Compound [natCu]Cu-NODAGA-F2] | 0.12 nM |
| N#C[C@@H]1CC(F)(F)CN1C(=O)CNC(=O)c1ccnc2ccc(NC(=O)CCC(=O)N3CCN(C(=O)CCC(C(=O)O)[N+]45CC[N+]67CC[N+]8(CC4)CC(=O)[O][Cu]685[O]C(=O)C7)CC3)cc12 (some centres not stated) [US20240173440, Compound [natCu]Cu-NODAGA-F3] | 0.04 nM |
